Results from ChEMBL document CHEMBL1201862, “PubChem BioAssay data set” (2004).
Where “and” joins values, the source holds several entries; their conditions need not be identical. Equal values may be shown once.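 Briefly, cells in 96-well plates were exposed to five compound concentrations for 48 h, and endpoints were estimated by linear interpolation. GI50: concentration for 50% inhibition of growth.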 Calls of active or inactive are those of the source. No stated cut-off is given here; in the data, active = GI50 up to about 1.1 µM and inactive = higher.

What was measured:
Experiment in all cases: growth of human tumour cells (NCI), 48 h
NCI-H522 = system: NCI-H522
BT-549 = system: BT-549
MOLT-4 = system: MOLT-4
SNB-75 = system: SNB-75
COLO 205 = system: COLO 205
DU-145 = system: DU-145
SK-MEL-28 = system: SK-MEL-28
K562 = system: K562
U-251 = system: U-251
HOP-92 = system: HOP-92
HCT-15 = system: HCT-15
HT-29 = system: HT-29
EKVX = system: EKVX
MDA-N = system: MDA-N
HOP-62 = system: HOP-62
OVCAR-8 = system: OVCAR-8
UACC-62 = system: UACC-62
CAKI-1 = system: CAKI-1

SMILES	GI50 (NCI-H522)	GI50 (BT-549)	GI50 (MOLT-4)	GI50 (SNB-75)	GI50 (COLO 205)	GI50 (DU-145)	GI50 (SK-MEL-28)	GI50 (K562)	GI50 (U-251)	GI50 (HOP-92)	GI50 (HCT-15)	GI50 (HT-29)	GI50 (EKVX)	GI50 (MDA-N)	GI50 (HOP-62)	GI50 (OVCAR-8)	GI50 (UACC-62)	GI50 (CAKI-1)
CCn1c(-c2ccc(OC)cc2)nc2c1C(=O)c1ccccc1C2=O	> 100 µM (inactive)	67.6 µM (inactive)	> 100 µM (inactive)	> 100 µM (inactive)	> 100 µM (inactive)	> 100 µM (inactive)	> 100 µM (inactive)	> 100 µM (inactive)	> 100 µM (inactive)	> 100 µM (inactive)	> 100 µM	> 100 µM (inactive)	> 100 µM (inactive)	> 100 µM (inactive)	59.6 µM (inactive)	> 100 µM (inactive)	> 100 µM (inactive)	–
CSc1nc(C#N)c(/N=C\N(C)C)n1C	> 100 µM (inactive)	> 100 µM (inactive)	> 100 µM (inactive)	–	> 100 µM (inactive)	> 100 µM (inactive)	> 100 µM (inactive)	> 100 µM (inactive)	> 100 µM (inactive)	> 100 µM (inactive)	> 100 µM	–	> 100 µM (inactive)	> 100 µM (inactive)	> 100 µM (inactive)	> 100 µM (inactive)	> 100 µM (inactive)	> 100 µM (inactive)
C=C(Cl)C(Cl)(CBr)CCCC(C)(C)Cl (stereo not drawn)	9.25 µM (inactive)	52 µM (inactive)	> 55.6 µM (inactive)	4.48 µM (inactive)	7.5 µM (inactive)	10.9 µM (inactive)	11.7 µM (inactive)	> 42 µM (inactive)	2.11 µM (inactive)	2.41 µM (inactive)	26.3 µM	1.97 µM (inactive)	18.5 µM (inactive)	28.1 µM (inactive)	4.26 µM (inactive)	18.7 µM (inactive)	17.4 µM (inactive)	1.99 µM (inactive)
Cc1nc2c(nc1C)-c1c(c3c(n1C)C(=O)CCC3)C(=O)C2=O	0.434 µM (active)	0.0259 µM (active)	0.312 µM (active)	0.931 µM (active)	1.75 µM (inactive)	0.592 µM (active)	0.622 µM (active)	0.338 µM (active)	0.213 µM (active)	1.29 µM (inactive)	0.334 µM	1.98 µM (inactive)	1.06 µM (active)	0.162 µM (active)	0.885 µM (active)	0.236 µM (active)	0.406 µM (active)	–
O=c1c2ccccc2nc(-c2ccccc2)n1O	> 100 µM (inactive)	> 100 µM (inactive)	–	87.3 µM (inactive)	> 100 µM (inactive)	> 100 µM (inactive)	> 100 µM (inactive)	30.9 µM (inactive)	> 100 µM (inactive)	22.9 µM (inactive)	41.1 µM	> 100 µM (inactive)	> 100 µM (inactive)	> 100 µM (inactive)	5.28 µM (inactive)	51.5 µM (inactive)	> 100 µM (inactive)	8.47 µM (inactive)
COCCOCCOC1=CC(=O)c2c(O)ccc(O)c2C1=O	1.57 µM (inactive)	1.79 µM (inactive)	2.04 µM (inactive)	1.82 µM (inactive)	0.296 µM (active)	1.49 µM (inactive)	1.54 µM (inactive)	0.671 µM (active)	–	2.18 µM (inactive)	–	0.518 µM (active)	2.86 µM (inactive)	0.153 µM (active)	1.71 µM (inactive)	–	1.45 µM (inactive)	0.729 µM (active)
CN1CCN(c2ccc([N+](=O)[O-])c3no[n+]([O-])c23)CC1	0.0295 µM (active)	1.09 µM (active)	–	0.0103 µM (active)	0.656 µM (active)	0.141 µM (active)	1.98 µM (inactive)	0.0881 µM (active)	0.097 µM (active)	0.526 µM (active)	0.489 µM	0.18 µM (active)	1.19 µM (inactive)	1.36 µM (inactive)	0.0607 µM (active)	0.24 µM (active)	0.769 µM (active)	0.032 µM (active)
C=C(Cl)/C(=C\Cl)CCC(Cl)C(C)C (stereo not drawn)	59.4 µM (inactive)	> 100 µM (inactive)	44.2 µM (inactive)	> 100 µM (inactive)	> 100 µM (inactive)	> 100 µM (inactive)	> 100 µM (inactive)	54.3 µM (inactive)	> 100 µM (inactive)	> 100 µM (inactive)	–	> 100 µM (inactive)	> 100 µM (inactive)	> 100 µM (inactive)	> 100 µM (inactive)	–	> 100 µM (inactive)	> 100 µM (inactive)
COP(=O)(OC)[C@@](O)(c1ccccc1)[C@@H](O)[C@H](O)c1ccccc1	> 100 µM (inactive)	> 100 µM (inactive)	> 100 µM (inactive)	> 100 µM (inactive)	> 100 µM (inactive)	> 100 µM (inactive)	> 100 µM (inactive)	60.1 µM (inactive)	> 100 µM (inactive)	> 100 µM (inactive)	> 100 µM	> 100 µM (inactive)	> 100 µM (inactive)	> 100 µM (inactive)	–	> 100 µM (inactive)	> 100 µM (inactive)	> 100 µM (inactive)
COc1cc(NCc2ccc3n2-c2ccccc2OC3)cc(OC)c1OC	12.7 µM (inactive)	24.2 µM (inactive)	–	23.8 µM (inactive)	12.9 µM (inactive)	72.1 µM (inactive)	38.3 µM (inactive)	8.36 µM (inactive)	18.4 µM (inactive)	11 µM (inactive)	29.9 µM	35.5 µM (inactive)	9.71 µM (inactive)	21.1 µM (inactive)	43.5 µM (inactive)	31 µM (inactive)	19 µM (inactive)	27 µM (inactive)
CC1(CNCc2ccccc2)CC(CCc2ccccc2)N(C(=O)c2ccc([N+](=O)[O-])cc2)C1Cc1ccc(O)cc1 (stereo not drawn)	8.79 µM (inactive)	16.1 µM (inactive)	13.2 µM (inactive)	–	6.5 µM (inactive)	14.7 µM (inactive)	31 µM (inactive)	33.7 µM (inactive)	12.3 µM (inactive)	2.04 µM (inactive)	12.6 µM	5.65 µM (inactive)	14.4 µM (inactive)	12.3 µM (inactive)	15.8 µM (inactive)	14.4 µM (inactive)	13.1 µM (inactive)	12.9 µM (inactive)
CC(C)OC(=O)[C@@H]1OC(C)(C)O[C@H]1C(=O)OC(C)C	> 100 µM (inactive)	> 100 µM (inactive)	> 100 µM (inactive)	> 100 µM (inactive)	> 100 µM (inactive)	> 100 µM (inactive)	–	> 100 µM (inactive)	> 100 µM (inactive)	> 100 µM (inactive)	> 100 µM	> 100 µM (inactive)	> 100 µM (inactive)	> 100 µM (inactive)	> 100 µM (inactive)	> 100 µM (inactive)	> 100 µM (inactive)	> 100 µM (inactive)
Nc1ncnc2c1ncn2[C@@H]1C[C@H](NO)[C@@H](O)[C@H]1O	> 100 µM (inactive)	> 100 µM (inactive)	83.4 µM (inactive)	> 100 µM (inactive)	> 100 µM (inactive)	> 100 µM (inactive)	> 100 µM (inactive)	28.1 µM (inactive)	> 100 µM (inactive)	> 100 µM (inactive)	16.4 µM	–	> 100 µM (inactive)	> 100 µM (inactive)	> 100 µM (inactive)	> 100 µM (inactive)	> 100 µM (inactive)	–
O=[N+]([O-])c1cc([N+](=O)[O-])c(Nn2c3ccccc3c3ccccc32)c([N+](=O)[O-])c1	0.403 µM (active)	2.18 µM (inactive)	0.69 µM (active)	–	2.56 µM (inactive)	4.15 µM (inactive)	3.3 µM (inactive)	1.14 µM (inactive)	1.82 µM (inactive)	0.346 µM (active)	2.58 µM	0.857 µM (active)	1.64 µM (inactive)	2.38 µM (inactive)	1.87 µM (inactive)	2.55 µM (inactive)	0.933 µM (active)	–
O=C1C2=Cc3ccccc3OC2(O)Oc2cc(O)ccc21 (stereo not drawn)	–	> 100 µM (inactive)	> 100 µM (inactive)	> 100 µM (inactive)	> 100 µM (inactive)	> 100 µM (inactive)	> 100 µM (inactive)	> 100 µM (inactive)	> 100 µM (inactive)	> 100 µM (inactive)	97.7 µM	> 100 µM (inactive)	> 100 µM (inactive)	> 100 µM (inactive)	> 100 µM (inactive)	> 100 µM (inactive)	> 100 µM (inactive)	> 100 µM (inactive)
CCOC(=O)c1sc(N/N=C2\NC(=O)/C(=C/c3ccc([N+](=O)[O-])cc3)S2)nc1C	17.7 µM (inactive)	24 µM (inactive)	10.3 µM (inactive)	25.8 µM (inactive)	25.1 µM (inactive)	16.8 µM (inactive)	32.1 µM (inactive)	–	26.1 µM (inactive)	16.9 µM (inactive)	19.7 µM	25.2 µM (inactive)	15.7 µM (inactive)	25.9 µM (inactive)	17.2 µM (inactive)	22.4 µM (inactive)	22.2 µM (inactive)	22.1 µM (inactive)
N=C(N)N/N=C/c1c(-c2cc([N+](=O)[O-])c(Cl)cc2Cl)nc2sccn12	340 nM (active) and 1.76 µM (inactive)	1.4 µM (inactive) and 1.46 µM (inactive)	0.124 µM (active)	0.0155 µM (active)	–	2.15 µM (inactive) and 449 nM (active)	1.38 µM (inactive) and 1.47 µM (inactive)	242 nM (active) and 746 nM (active)	1.05 µM (active) and 272 nM (active)	1.8 µM (inactive) and 1.13 µM (inactive)	2.47 µM and 1.26 µM	–	1.72 µM (inactive) and 1.77 µM (inactive)	1.48 µM (inactive)	1.89 µM (inactive)	1.98 µM (inactive) and 2 µM (inactive)	1.56 µM (inactive) and 1.94 µM (inactive)	6.27 µM (inactive)
